Results published in ChEMBL document CHEMBL2346639, “A new dehydroabietic acid-based arylamine fluorescent probe: Synthesis, structure analysis and in vitro biodiagnose function” (Bioorg Med Chem Lett, 2013).

Columns and labels:
[1] = Photostability of the compound in DMSO at 1 x 10^-6 M measured after UV-irradiation by fluorescence spectra analysis; assay type: physicochemical; conditions: 1 µM
[2] = Cytotoxicity against human A549 cells assessed as cell survival at 1 uM after 24 hrs by MTT assay relative to control; assay type: cell-based; conditions: read-out: Survival
[3] = system: A549; assay: Cellular uptake in human A549 cells after 4 hrs by fluorescence microscopic analysis; assay type: ADME, cell-based; conditions: a549, 4 h
[4] = Photostability of the compound in water at 10 uM measured 30 mins after UV-irradiation by fluorescence spectra analysis; assay type: physicochemical; conditions: buffer, 0.5 h
[5] = Photostability of the compound in water at 1 x 10^-6 M measured after UV-irradiation by fluorescence spectra analysis; assay type: physicochemical; conditions: buffer, 1 µM
[6] = Solubility of the compound in water; assay type: physicochemical
[7] = Cytotoxicity against human HeLa cells assessed as cell survival at 1 uM after 24 hrs by MTT assay relative to control; assay type: cell-based; conditions: read-out: Survival
[8] = Cellular uptake in human SGC7901 cells cytoplasm after 4 hrs by fluorescence microscopic analysis; assay type: ADME, cell-based; conditions: sgc-7901, 4 h
[9] = Cytotoxicity against human SGC7901 cells assessed as cell survival at 1 uM after 24 hrs by MTT assay relative to control; assay type: cell-based; conditions: SGC-7901 cells, read-out: Survival
[10] = Cellular uptake in human A549 cells cytoplasm after 4 hrs by fluorescence microscopic analysis; assay type: ADME, cell-based; conditions: a549, 4 h
[11] = Photostability of the compound in methanol at 1 x 10^-6 M measured after UV-irradiation by fluorescence spectra analysis; assay type: physicochemical; conditions: 1 µM
[12] = Cellular uptake in human HeLa cells cytoplasm after 4 hrs by fluorescence microscopic analysis; assay type: ADME, cell-based
[13] = Cytotoxicity against human SMMC7721 cells assessed as cell survival at 1 uM after 24 hrs by MTT assay relative to control; assay type: cell-based; conditions: SMMC-7721 cells, read-out: Survival
[14] = system: HeLa; assay: Cellular uptake in human HeLa cells after 4 hrs by fluorescence microscopic analysis; assay type: ADME, cell-based
[15] = system: SMMC-7721; assay: Cellular uptake in human SMMC7721 cells after 4 hrs by fluorescence microscopic analysis; assay type: ADME, cell-based; conditions: smmc-7721, 4 h
[16] = system: A549; assay: Cytotoxicity against human A549 cells assessed as effect on cell survival at 5 to 25 uM after 24 hrs by MTT assay; assay type: cell-based; conditions: a549, 24 h
[17] = Photostability of the compound in dichloromethane at 1 x 10^-6 M measured after UV-irradiation by fluorescence spectra analysis; assay type: physicochemical; conditions: 1 µM
[18] = system: SGC-7901; assay: Cellular uptake in human SGC7901 cells after 4 hrs by fluorescence microscopic analysis; assay type: ADME, cell-based; conditions: sgc-7901, 4 h
[19] = Cellular uptake in human SMMC7721 cells cytoplasm after 4 hrs by fluorescence microscopic analysis; assay type: ADME, cell-based; conditions: smmc-7721, 4 h

COC(=O)[C@]1(C)CCC[C@]2(C)c3ccc(Nc4cccc5ccccc45)cc3CC[C@@H]12
Stability [1]: Unstable
viability at 24 h, 1 µM [2]: 93.1%
Drug uptake [3]: Active
Stability [4]: Stable
Stability [5]: Stable
solubility [6]: > 15 µM
viability at 24 h, 1 µM [7]: 97.3%
Drug uptake [8]: Active
viability at 24 h, 1 µM [9]: 94.5%
Drug uptake [10]: Active
Stability [11]: Unstable
Drug uptake [12]: Active
viability at 24 h, 1 µM [13]: 96%
Drug uptake [14]: Active
Drug uptake [15]: Active
Activity [16]: Non-toxic
Stability [17]: Unstable
Drug uptake [18]: Active
Drug uptake [19]: Active
